Values quoted from earlier work in PMC12359172, “Cell and tissue reprogramming: Unlocking a new era in medical drug discovery” (Pharmacological Reviews, 2025).

Columns and labels:
[1] = tested on: AMD iPSC-derived RPE cells; design: method as in PMID 35056119, PMID 33918210; conditions: ref [431],[432]
[2] = tested on: human dermal fibroblasts / primary human cardiac fibroblasts; conditions: for effect on cardiac fibroblast reprogramming: alongside MEF2C and TBX5 (MT), chemical screen of 2000 compounds, ref [472]; for reprogramming efficiency: HDF with GATA4, MEF2C, TBX5, MYOCD, NKX2-5, miR-1 and miR-133a plus small molecules, ref [468]
[3] = design: method as in PMID 10066283, PMID 9704384; conditions: ref [843],[844]
[4] = tested on: Müller glia (MG); conditions: NMDA-induced injury, intraperitoneal injection as printed; ref [333]
[5] = tested on: skin fibroblasts from patients with ALS, HFFs, FAD fibroblasts; conditions: human induced motor neuron model, chemical screen; ref [508]
[6] = tested on: SMA iPSC-derived motor neurons; design: method as in PMID 19098894; conditions: ref [391]
[7] = design: method as in PMID 32392694, PMID 27490705; conditions: ref [392],[393]
[8] = tested on: iPSC-derived cardiac organoid; design: method as in PMID 32284552; conditions: ref [442]
[9] = tested on: iPSC-derived cardiomyocytes (KCNQ1/TRPM4 mutation); conditions: ref [413]
[10] = tested on: YAP; design: method as in PMID 33888614; conditions: ref [139]

In the case of NC(=O)c1ncn([C@@H]2O[C@H](COP(=O)(O)O)[C@@H](O)[C@H]2O)c1N [5-aminoimidazole-4-carboxamide ribonucleotide], the “effect on mitochondrial function” value [1] is given as “improved mitochondrial function”.
In the case of CCS(=O)(=O)N1CC(CC#N)(n2cc(-c3ncnc4[nH]ccc34)cn2)C1 [Baricitinib], the “effect on cardiac fibroblast reprogramming” value [2] is listed as “significantly improved reprogramming efficiency and promoted spontaneous contractile activity”.
In the case of O=c1[nH]c(=O)n([C@H]2C[C@H](O)[C@@H](CO)O2)cc1Br [BrdU, bromodeoxyuridine], the developmental toxicity [3] is given as “dose-dependent genetic and neurologic developmental defects”.
For Cc1c[nH]c(-c2cnc(NCCNc3ccc(C#N)cn3)nc2-c2ccc(Cl)cc2Cl)n1 [CHIR99021], the reprogramming efficiency [2] is listed as less than 25%.
For COCCOc1ccc(-c2cn(-c3ccccc3)c3nc[nH]c(=O)c23)cc1 [DMX-5804], the “effect on Müller glia” value [4] is listed as “promoted MG proliferation and conversion to a retinal progenitor cell–like state”.
For CC(C)(C)c1nc2c3cc[nH]c(=O)c3c3cc(F)ccc3c2[nH]1 [JAK1 inhibitor (EMD4Biosciences; 420099)], the reprogramming efficiency [2] is listed as less than 25%.
For O=C1Cc2c([nH]c3ccc(Br)cc23)-c2ccccc2N1 [Kenpaullone], the “rescue of ALS-specific disease characteristics” value [5] is listed as “rescuing ALS-specific disease characteristics, including restoring electrophysiological activity and the ability to form NMJs”.
In the case of CN(C)C(=N)N=C(N)N [Metformin], the “effect on mitochondrial function” value [1] is listed as “improved mitochondrial function”.
In the case of NC(=O)c1ccc(-c2nc(-c3ccc4c(c3)OCO4)c(-c3ccccn3)[nH]2)cc1 [SB431542], the “effect on cardiac fibroblast reprogramming” value [2] is given as “significantly improved reprogramming efficiency and promoted spontaneous contractile activity”.
In the case of CCCC(CCC)C(=O)O [VPA, valproic acid], the drug screening outcome [6] is given as “potential treatments” and the clinical trial outcome [7] is given as “failed in clinical trials”.
In the case of Oc1nc(-c2ccc(C(F)(F)F)cc2)nc2c1CSCC2 [Xav939], the iCM function ([2]; MST cocktail (MYOCD, SMAD6, TBX20) combined with FGF2 and XAV939, primary human cardiac fibroblasts, ref [536]) is listed as “spontaneous contractions and calcium transients”.
For COc1cccc2c1C(=O)c1c(O)c3c(c(O)c1C2=O)C[C@@](O)(C(=O)CO)C[C@@H]3O[C@H]1C[C@H](N)[C@H](O)[C@H](C)O1 [doxorubicin], the “cardiotoxicity detected by model” value [8] is given as “cardiotoxic effects”.
For NC[C@H]1O[C@H](O[C@H]2[C@H](O)[C@@H](O[C@H]3O[C@H](CO)[C@@H](O)[C@H](N)[C@H]3O)[C@H](N)C[C@@H]2N)[C@H](N)C[C@@H]1O [tobramycin], the drug screening outcome [6] is given as “potential treatments”.
For COc1ccc(CCN(C)CCCC(C#N)(c2ccc(OC)c(OC)c2)C(C)C)cc1OC (stereo not shown) [verapamil], the drug screening outcome [9] is listed as “potential treatment”.
In the case of verteporfin, the fibroblast-mediated regeneration [10] is given as “enhance fibroblast-mediated regeneration, improving mechanical strength and reducing scarring”.
